Test results reported in ChEMBL document CHEMBL4325913, “Norharmane as a potential chemical entity for development of anticancer drugs” (Eur J Med Chem, 2019).
pIC50: −log10 of the molar value. Each block holds one molecule with its values, some of them ahead of it.

How the values were obtained:
HepG2 [1] = experiment: Antiproliferative activity against human HepG2 cells at 4 uM after 48 hrs by MTT assay relative to control; assay type: functional
HepG2 [2] = experiment: Antiproliferative activity against human HepG2 cells at 5 uM after 48 hrs by MTT assay relative to control; assay type: functional
[3] = target: NAD-dependent protein deacylase sirtuin-5, mitochondrial (Homo sapiens) (UniProt Q9NXA8); experiment: Inhibition of SIRT5 (unknown origin) at 30 uM relative to control
[4] = target: NAD-dependent protein deacylase sirtuin-5, mitochondrial (Homo sapiens) (UniProt Q9NXA8); experiment: Inhibition of SIRT5 (unknown origin) at 100 uM relative to control
SMMC-7721 = experiment: Antiproliferative activity against human SMMC7721 cells after 48 hrs by MTT assay; assay type: functional, cell-based; conditions: SMMC-7721, 48 h
[5] = test system: Lewis lung carcinoma cell line; experiment: Antitumor activity against mouse LLC cells implanted in mouse assessed as tumor growth inhibition at 7.5 mg/kg, ip qd treated for 7 consecutive days starting from 24 hrs post tumor inoculum relative to control; assay type: functional; conditions: read-out: TGI
CCRF S-180 = experiment: Antitumor activity against mouse S180 cells implanted in mouse assessed as tumor growth inhibition at 7.5 mg/kg, ip qd treated for 7 consecutive days starting from 24 hrs post tumor inoculum relative to control; assay type: functional; conditions: CCRF S-180, ip, read-out: TGI
HGC-27 = experiment: Cytotoxicity against human HGC27 cells assessed as reduction in cell viability after 48 hrs by MTT assay; assay type: functional, cell-based; conditions: HGC-27, 48 h

NAD-dependent protein deacylase sirtuin-5, mitochondrial (Homo sapiens), sequence (Q9NXA8 37-310 limits assumed): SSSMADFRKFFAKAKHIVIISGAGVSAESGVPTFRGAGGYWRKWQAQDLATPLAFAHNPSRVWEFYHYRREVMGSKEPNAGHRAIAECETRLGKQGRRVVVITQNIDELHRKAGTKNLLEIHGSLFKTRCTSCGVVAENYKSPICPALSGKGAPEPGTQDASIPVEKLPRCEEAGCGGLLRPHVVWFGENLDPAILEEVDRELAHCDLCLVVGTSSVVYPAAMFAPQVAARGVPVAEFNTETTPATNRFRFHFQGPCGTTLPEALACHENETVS

Compound: CCCN(Cc1ccc(C(=O)NO)cc1)C(=O)c1cc2c([nH]c3ccccc32)c(-c2ccc(OC)cc2)n1
Activity (HepG2 [1]): 61.8%
Activity (HepG2 [2]): 34.5%

inhibition [3]: 35%
inhibition [4]: 52%
Compound: O=C(NCCn1c2ccccc2c2ccncc21)Nc1ccc(C(=O)O)cc1

pIC50 (SMMC-7721): 5.16
Compound: Cc1nc(C(=O)NCCCCCNC(=O)c2ccccc2O)cc2c1[nH]c1ccccc12

Compound: COc1cc(-c2nc(Cn3cc(CN4C(=O)c5ccc(C)cc5C4=O)nn3)cc3c2[nH]c2ccccc23)cc(OC)c1OC
inhibition in vivo at 7.5 mg/kg [5]: 46.9%
inhibition in vivo at 7.5 mg/kg (CCRF S-180): 40%
pIC50 (HGC-27): 5.26
